According to patent publication US6376666B1 (Nauchno-Issledovatelsky Institut Farmakologii Rossiiskoi …, priority 1994, dated 2002):
Marks after values point to notes of the source that are not given here.

Tests used:
in vivo = details: rat, iv
[1] = test system: ischemized myocardium of cats; test: ST-segment elevation during 5 min occlusions of coronary artery (acute coronary deficiency); type: in vivo; details: for change in mean elevation of ST-segment vs control occlusion: cats, 1.0 mg/kg i.v.
Method: These experiments were conducted in cats weighing 2,5-4,0 kg under anasthesia by i.v. injection of nembutal (40 mg/kg) in open chest conditions. Epicardium electrogram in 3-4 leads was registered in “Mingograph-81”. The value of mean elevation of ST-segment during 5 min occlusions of anterior left descending coronary artery with 15 min reperfusions between them was the main index of intensity of reversible ischemized damage of myocardium.
The statistical calculation was carried out with non-parametric Wilcocson method for associated variants.

[2] = test system: ischemized myocardium of cats; test: contractile and pump functions and ATP level of ischemized myocardium (20-40 min occlusion, reperfusion); type: in vivo
Method: The effects of this compound on contractile and pump functions of ischemized myocardium were studied in cats weighing 3,0-4,5 kg under anesthesia with nembutal (40 mg/kg). […] The phase curve of blood flow in ascending part of the aortic arch was recorded with electromagnetic blood flowmeter MFV-1200 (“Nihon-Kohden”, Japan). Hemodynamics, heart activity values and the number of arrhythmia were calculated. In the experiments with 40 min ischemia immediately after 60 min the intact and ischemized zones of left ventricle were dissected and freezed in liquid nitrogen. ATP level was measured using hexokinase method in these zones. 4 series of experiments (2-control and 2-basic) were conducted in 12 cats in each. For statistical calculation the t-Student and Fisher's precision test were used.

outbred male mice = test: rotarod test (myorelaxant activity); type: in vivo; details: for time of remaining on the rotarod: cut-off 120 sec
Method: The myorelaxant activity of choosen compounds were studied in the outbred male mice weighing 22-25 g in rotarod test [Voronina T. A. et al., in: “Phenazepam”, Naukova Dumka, Kiev, 1982, p.145]. The animals were placed on the horizontal rotarod (D=2 cm) calibrated for a fixed speed of 4 rpm. According to the rotarod experimental protocol, normal motor coordination was defined by the ability of the animals to remain on the rotarod for an arbitrarily selected time of 120 sec.

outbred mice = test: acute toxicity after per os administration; details: mouse, in vivo
Method: (§1) The acute toxicity was measured in outbred mice after per os administration of used drugs in the 1% starch suspension. The lethal doses were calculated according to Litchfield-Wilcocson' method. […].

[3] = acute toxicity after per os administration; details: mouse, in vivo, oral; outbred mice, per os, 1% starch suspension, Litchfield-Wilcocson
Method: as §1

outbred male rats = test: conflict Vogel test (punished licking of water); type: in vivo; details: M ± mx
Method: The study of anxiolytic activity of chosen compounds was carried out in the experiments with outbred male rats weighing 180-200 g in standard conflict Vogel' procedure [Voronina T. A. et al., in: “Phenazepam”, Naukova Dumka, Kiev, 1982, p.89, 93, 146]. The main aim of the initial step of experiments was the training of rats to develop the feeling of thirst with following experience of water licking from bottle in the experimental chamber. The animals were deprived of water for 24 hours and were placed in the test chamber for 5-min adaptation period during which they had free access to the drinking bottle. After another 24 h deprivation period the rats were placed again in the test chamber and were allowed to drink water for 5 sec. Immediately afterwards drinking attempts were punished by electric shock (0,5 mA). Under this collision of drinking and protective reflexes the extremal situation was developed. In this situation the anxiety of punishment prevented the licking process. The number of shocks received throughout a 5-min experimental session was recorded.

male outbred mice = test: potentiation of sleep induced by sodium thiopental; type: in vivo
Method: The possible hypnotic effects of choosen drugs was estimated according to method of potentiation of sleep induced by sodium thiopental. The male outbred mice weighing 20-25 g were injected i.p. with sodium thiopental at dose of 70 mg/kg. Two parameters were estimated: latent time of sleeping and duration of sleep. The used compounds were administered i.p. 30 min prior injection of sodium thiopental.

[4] = 40 min occlusion, 60 min reperfusion
[5] = 0.01 mg/kg i.p. 30 min before thiopental 70 mg/kg i.p.
[6] = 0.1 mg/kg i.p. 30 min before thiopental 70 mg/kg i.p.
[7] = 1.0 mg/kg i.p. 30 min before thiopental 70 mg/kg i.p.
[8] = 5.0 mg/kg i.p. 30 min before thiopental 70 mg/kg i.p.
[9] = 10.0 mg/kg i.p. 30 min before thiopental 70 mg/kg i.p.

Compound: CCOc1ccc2nc(SCCN(CC)CC)[nH]c2c1 [Compound IX, 2-[2-(Diethylamino)ethylthio]-5-ethoxybenz-imidazole]
- LD50 (in vivo): 31.5 mg/kg
- change in mean elevation of ST-segment vs control occlusion ([1]; occlusion 20 min after injection, 15 sec of reperfusion): −0.8* mv
- change in mean elevation of ST-segment vs control occlusion ([1]; occlusion 20 min after injection, 30 sec of occlusion): −0.7 mv
- change in mean elevation of ST-segment vs control occlusion ([1]; occlusion 20 min after injection, 2 min of occlusion): −1.4* mv
- change in mean elevation of ST-segment vs control occlusion ([1]; occlusion 20 min after injection, 3 min of occlusion): −1.4* mv
- change in mean elevation of ST-segment vs control occlusion ([1]; occlusion 20 min after injection, 5 min of occlusion): −1.2 mv
- change in mean elevation of ST-segment vs control occlusion ([1]; occlusion 40 min after injection, 15 sec of reperfusion): −1.0* mv
- change in mean elevation of ST-segment vs control occlusion ([1]; occlusion 40 min after injection, 30 sec of occlusion): −0.5 mv
- change in mean elevation of ST-segment vs control occlusion ([1]; occlusion 40 min after injection, 1 min of occlusion): −0.5* mv
- change in mean elevation of ST-segment vs control occlusion ([1]; occlusion 40 min after injection, 2 min of occlusion): −1.0* mv
- change in mean elevation of ST-segment vs control occlusion ([1]; occlusion 40 min after injection, 3 min of occlusion): −1.2 mv
- change in mean elevation of ST-segment vs control occlusion ([1]; occlusion 40 min after injection, 5 min of occlusion): −1.0 mv
- change in mean elevation of ST-segment vs control occlusion ([1]; occlusion immediately after injection, 15 sec of reperfusion): −1.2* mv
- change in mean elevation of ST-segment vs control occlusion ([1]; occlusion immediately after injection, 30 sec of occlusion): −1.8** mv
- change in mean elevation of ST-segment vs control occlusion ([1]; occlusion immediately after injection, 1 min of occlusion): −1.9** mv
- change in mean elevation of ST-segment vs control occlusion ([1]; occlusion immediately after injection, 2 min of occlusion): −2.4** mv
- change in mean elevation of ST-segment vs control occlusion ([1]; occlusion immediately after injection, 3 min of occlusion): −1.9** mv
- change in mean elevation of ST-segment vs control occlusion ([1]; occlusion immediately after injection, 5 min of occlusion): −2.2** mv
- duration of anti-ischemic effect after injection ([1]; cats, 1,0 mg/kg i.v.): 40 min
- effect on mean elevation of ST-segment during 5 min occlusion, in words ([1]; cats, 1,0 mg/kg i.v.): decreased the mean elevation of ST-segment
- effect on number of arrhythmias during occlusion and reperfusion, in words ([2]; 20 min occlusion, 30 min reperfusion): decreased the number of arrhythmias
- effect on cardiac output, in words ([2]; 20 min occlusion, 30 min reperfusion, 1,0 mg/kg bolus +50 mcg/kg/min i.v.): prevented the decrease in cardiac output
- effect on inhibition of contractile function of myocardium induced by ischemic damage, in words ([2]; 20 min occlusion, 30 min reperfusion, 1,0 mg/kg bolus +50 mcg/kg/min i.v. during 30 min): significantly prevents the inhibition of contractile function of myocardium
- effect on ATP level in intact zones of myocardium, in words [2, 4]: did not change it in the intact zones
- effect on cardiac output, in words [2, 4]: no effect on changes in cardiac output
- effect on stroke volume, in words [2, 4]: prevented the decrease in stroke volume
- effect on ATP level in ischemized myocardium, in words ([2]; 40 min occlusion, 60 min reperfusion, hexokinase method): increased the ATP level in the ischemized myocardium
- effect on number of arrhythmias induced by occlusion and reperfusion, in words ([2]; critical and mild ischemia): did not reduced the number of arrhythmias
- effect on inhibition of contractile function of heart, in words ([2]; critical ischemia: 40 min occlusion, 60 min reperfusion): prevented the inhibition of contractile function of heart

Compound: CCOc1ccc2nc(SCCN3CCOCC3)[nH]c2c1 [XII, 2-[2-(Morpholino)ethylthio]-5-ethoxybenzimidazole]
- time of remaining on the rotarod (outbred male mice; 0.01 mg/kg): 120.0 + 0 sec
- time of remaining on the rotarod (outbred male mice; 0.1 mg/kg): 120.0 + 0 sec
- time of remaining on the rotarod (outbred male mice; 1.0 mg/kg): 120.0 + 0 sec
- time of remaining on the rotarod (outbred male mice; 5.0 mg/kg): 120.0 + 0 sec
- time of remaining on the rotarod (outbred male mice; 10.0 mg/kg): 120.0 + 0 sec
- time of remaining on the rotarod (outbred male mice; 20.0 mg/kg): 118.8 ± 1.6 s
- time of remaining on the rotarod (outbred male mice; 50.0 mg/kg): 111.3 ± 7.5 s
- effect on motor coordination in rotarod test, in words (outbred male mice; dose range 0,01 mg/kg-50 mg/kg): no effect on the motor coordination
- toxicity, conclusion in words (outbred mice): not toxic
- LD50 [3]: 1160 mg/kg
- number of punished lickings (shocks received in 5-min session) (outbred male rats; 1.0 mg/kg i.p.): 15.3 ± 3.4
- number of punished lickings (shocks received in 5-min session) (outbred male rats; 5.0 mg/kg i.p.): 19.0 ± 2.5
- number of punished lickings (shocks received in 5-min session) (outbred male rats; 10.0 mg/kg i.p.): 15.4 ± 2.5
- number of punished lickings (shocks received in 5-min session) (outbred male rats; 20.0 mg/kg i.p.): 28.0 ± 5.8
- duration of sleep after sodium thiopental (male outbred mice; [5]): 76.4 ± 16.7 min
- latent time of sleep after sodium thiopental (male outbred mice; [5]): 1.86 ± 0.27 s
- duration of sleep after sodium thiopental (male outbred mice; [6]): 54.5 ± 9.9 min
- latent time of sleep after sodium thiopental (male outbred mice; [6]): 1.94 ± 0.18 s
- duration of sleep after sodium thiopental (male outbred mice; [7]): 67.9 ± 4.3 min
- latent time of sleep after sodium thiopental (male outbred mice; [7]): 2.78 ± 0.17 s
- duration of sleep after sodium thiopental (male outbred mice; [8]): 71.7 ± 14.6 min
- latent time of sleep after sodium thiopental (male outbred mice; [8]): 2.21 ± 0.17 s
- duration of sleep after sodium thiopental (male outbred mice; [9]): 92.4 ± 9.9 min
- latent time of sleep after sodium thiopental (male outbred mice; [9]): 2.28 ± 0.24 s
